We go through 21 compounds from ChEMBL document CHEMBL1133442, “Symmetrical bis(heteroarylmethoxyphenyl)alkylcarboxylic acids as inhibitors of leukotriene biosynthesis” (J Med Chem, 2000).

Type in all cases: functional
The species named for test [1] is Homo sapiens. Briefly: Inhibition of calcium ionophore (A-23187) -stimulated leukotriene B4 (LTB4) formation in human neutrophils at 390 nM.
For test [2], the system named is Rattus norvegicus. Nature of the test: Inhibition of leukotriene production in an ionophore-induced rat pleurisy model at 3 mg/kg. As to conditions: for inhibition in vivo at 3 mg/kg: Rattus norvegicus.
Test [3] concerns Rattus norvegicus. Nature of the test: In vivo inhibition evaluation of leukotriene inhibition in an ionophore-induced rat pleurisy at 3 mg/kg.
The species named for test [4] is Homo sapiens. Nature of the test: Inhibition of calcium ionophore (A-23187) stimulated leukotriene B4 (LTB4) formation in human neutrophils at 390 nM.

The structures appear in SMILES notation.

The inhibition is the relative decrease from the control value, in per cent. Broadly, the inhibition in vivo is the relative decrease from the control value, in per cent. A low value points to a weak effect. The term Inhibition denotes the drop in the measured response relative to a control, in per cent. Usually ED50 stands for the dose at which the effect has come halfway, by size or by number of responders. Low values mean greater potency, high ones weaker potency. As a reminder, the IC50 is the concentration that inhibits the measured activity by half.

Turning to `CC(CCC(=O)O)(c1ccc(OCc2ccc3ccccc3c2)cc1)c1ccc(OCc2ccc3ccccc3n2)cc1` (stereo unspecified), the inhibition at 0.39 µM in the test listed under Homo sapiens [1] (Homo sapiens) was 93%. Besides, the inhibition in vivo at 3 mg/kg in the test on Rattus norvegicus [2] came to 55%.

In the case of `CC(CC(c1ccc(OCc2ccc3ccccc3n2)cc1)c1ccc(OCc2ccc3ccccc3n2)cc1)C(=O)O` (stereo unspecified), the inhibition at 0.39 µM in the test listed under Homo sapiens [1] (Homo sapiens) came out at 82%. The same compound registered an Inhibition with Rattus norvegicus [2] of 43%.

On to `Cn1c(COc2ccc(C(C)(CCC(=O)O)c3ccc(OCc4nc5ccccc5n4C)cc3)cc2)nc2ccccc21`, for which the Inhibition in the test listed under Homo sapiens [1] came to 27%; in the test with Rattus norvegicus [2], 0%.

For `O=C(O)/C=N/OCC=C(c1ccc(OCc2ccc3ccccc3n2)cc1)c1ccc(OCc2ccc3ccccc3n2)cc1`, the inhibition at 0.39 µM in the test filed under Homo sapiens [1] (Homo sapiens) amounted to 100%. In the test with Rattus norvegicus [2], this compound returned an inhibition in vivo at 3 mg/kg of 17%.

As to `C/C(=N\OC(c1ccc(OCc2ccc3ccccc3n2)cc1)c1ccc(OCc2ccc3ccccc3n2)cc1)C(=O)O`, in the test with Rattus norvegicus [3], the ED50 was determined as 1.5 mg/kg. Also, the IC50 in the test filed under Homo sapiens [4] (Homo sapiens) turned out to be 0.021 µM.

Consider `OCC1CCC(c2ccc(OCc3ccc4ccccc4n3)cc2)(c2ccc(OCc3ccc4ccccc4n3)cc2)CC1`, for which, in the test listed under Homo sapiens [1] (Homo sapiens), the inhibition at 0.39 µM is 28%.

As for `CC(CCC(=O)O)(c1ccc(OCc2cnc3ccccc3n2)cc1)c1ccc(OCc2cnc3ccccc3n2)cc1`, the inhibition at 0.39 µM in the test filed under Homo sapiens [1] (Homo sapiens) came out at 47%. In addition, in the test with Rattus norvegicus [2], 3 mg/kg produced 14% inhibition in vivo.

For `CC(CCC(=O)[O-])(c1ccc(OCc2ccc3ccccc3n2)cc1)c1ccc(OCc2ccc3ccccc3n2)cc1.[Na+]`, the ED50 in the test on Rattus norvegicus [3] was 3 mg/kg. Besides, the IC50 in the test listed under Homo sapiens [4] was found to be 0.02 µM.

`O=C(O)CSC(c1ccc(OCc2ccc3ccccc3n2)cc1)(c1ccc(OCc2ccc3ccccc3n2)cc1)c1cccs1`: it took a dose of 1.1 mg/kg to reach the 50% effect level in the test on Rattus norvegicus [3] (ED50). Further, the IC50 in the test filed under Homo sapiens [4] (Homo sapiens) was 0.011 µM.

`C/C(=N\OCCC(C)(c1ccc(OCc2ccc3ccccc3n2)cc1)c1ccc(OCc2ccc3ccccc3n2)cc1)C(=O)O`: the inhibition at 0.39 µM in the test listed under Homo sapiens [1] (Homo sapiens) is 54%. This compound returned an inhibition in vivo at 3 mg/kg in the test on Rattus norvegicus [2] of 23%.

As for `Cn1c(COc2ccc(C(C)(CCC(=O)[O-])c3ccc(OCc4nc5ccccc5n4C)cc3)cc2)nc2ccccc21.[Na+]`, the figures for the Inhibition in the test listed under Homo sapiens [1] and with Rattus norvegicus [2] were 59% and 29%, respectively.

As to `O=C(O)C#CC(O)(c1ccc(OCc2ccc3ccccc3n2)cc1)c1ccc(OCc2ccc3ccccc3n2)cc1`, the inhibition at 0.39 µM in the test listed under Homo sapiens [1] (Homo sapiens) was 98%. Moreover, in the test on Rattus norvegicus [2], 3 mg/kg produced 48% inhibition in vivo.

`C/C(CCC(=O)O)=N\OC(c1ccc(OCc2ccc3ccccc3n2)cc1)c1ccc(OCc2ccc3ccccc3n2)cc1` registered an ED50 in the test with Rattus norvegicus [3] of 1 mg/kg. For the same compound, the IC50 in the test filed under Homo sapiens [4] (Homo sapiens) worked out at 0.05 µM.

With `CC(CCC(=O)O)(c1ccc(OCc2ccc3ccccc3n2)cc1)c1ccc(OCc2ccc3ccccc3n2)cc1`, the 50% effect level with Rattus norvegicus [3] (ED50) was put at a dose of 1.5 mg/kg. For the same compound, the IC50 in the test listed under Homo sapiens [4] (Homo sapiens) was 0.023 µM.

With `CC(SCC(=O)O)(c1ccc(OCc2ccc3ccccc3n2)cc1)c1ccc(OCc2ccc3ccccc3n2)cc1`, the inhibition at 0.39 µM in the test listed under Homo sapiens [1] (Homo sapiens) was determined as 62%. In the test on Rattus norvegicus [2], this compound gave an inhibition in vivo at 3 mg/kg of 0%.

As for `CC(CCC(=O)O)(c1ccc(OCc2ccccn2)cc1)c1ccc(OCc2ccccn2)cc1`, in the test filed under Homo sapiens [1], the inhibition at 0.39 µM was determined as 53%. Also, the inhibition in vivo at 3 mg/kg with Rattus norvegicus [3] came out at 0%.

Take `CC(CCC(=O)O)(c1ccc(OCc2ccc3ccccc3n2)cc1)c1ccc(OCc2nc3ccccc3s2)cc1` (stereo unspecified): the inhibition at 0.39 µM in the test filed under Homo sapiens [1] (Homo sapiens) was determined as 95%. Further, testing at 3 mg/kg with Rattus norvegicus [2] gave an inhibition in vivo of 35%.

`Cn1c(COc2ccc(C(C)(CCC(=O)[O-])c3ccc(OCc4ccc5ccccc5n4)cc3)cc2)nc2ccccc21.[Na+]` (stereo unspecified): the Inhibition in the test on Rattus norvegicus [2] was 10%. Also, in the test listed under Homo sapiens [4] (Homo sapiens), the IC50 came out at 0.09 µM.

Compound `CC(C)(/C=N/OCC(=O)O)C(c1ccc(OCc2ccc3ccccc3n2)cc1)c1ccc(OCc2ccc3ccccc3n2)cc1` had an inhibition in vivo at 3 mg/kg in the test with Rattus norvegicus [2] of 42%. Also, the IC50 in the test filed under Homo sapiens [4] (Homo sapiens) amounted to 0.028 µM.

`OC(c1ccc(OCc2ccc3ccccc3n2)cc1)(c1ccc(OCc2ccc3ccccc3n2)cc1)c1cccs1`: in the test filed under Homo sapiens [1] (Homo sapiens), the inhibition at 0.39 µM was 87%. In the test on Rattus norvegicus [2], this compound displayed an inhibition in vivo at 3 mg/kg of 0%.

Consider `O=C(O)/C=N/OC1CCC(c2ccc(OCc3ccc4ccccc4n3)cc2)(c2ccc(OCc3ccc4ccccc4n3)cc2)CC1`, for which the inhibition at 0.39 µM in the test listed under Homo sapiens [1] (Homo sapiens) amounted to 54%. In the test with Rattus norvegicus [2], this compound registered an inhibition in vivo at 3 mg/kg of 15%.
